Measurements reported in patent US20230094545A1, “S1P RECEPTOR MODULATORS” (AKAAL PHARMA PTY LTD, priority 2020, published 2023).
Where two headings read alike, the source gives them in different places.

Key:
[1] = Single oral dose in healthy human subjects: systemic exposure, heart rate, lymphopenia; assay type: in vivo; details: humans; for bradycardia: 0.5 mg to 12 mg single oral dose, 72 hours monitoring
Description: The observance of bradycardia with S1P1 selective agonists has been reported to be species specific.
Human subjects were treated in cohorts of different dose levels (each cohort=8 human subjects) with a compound of formula (I)@0.5 mg, 2 mg, 6 mg and 12 mg single oral dose.

[2] = tested on: experimental autoimmune encephalomyelitis (EAE); test: EAE model, RT-PCR for IL-31, IL1β and IFNγ in spleen; assay type: in vivo; details: 3 mg/kg from 11th day, Day 27
Description: The efficacy of the compound of formula (I) was assessed in an animal model of experimental autoimmune encephalomyelitis (EAE), which is a widely-accepted model of demyelinating diseases such as MS. The cDNA was prepared from spleen obtained from Vehicle treated (Control), EAE induced (no treatment) and EAE induced (a compound of formula (I) treated) animals (n=5 each group) at the recovery (Day 27 from 1st day of MBP immunization). The treatment with a compound of Formula I (3 mg/kg) was initiated on the 11th day from MBP immunization. cDNA was synthesized using Bio-Rad cDNA synthesis kit. RT-PCR was performed for IL-31, IL1β and IFNγ. Primers were obtained from Qiagen and the samples were analysed on Bio-Rad CFX96Real-Time System. […] Statistical Significance of the data is represented by p value. *denotes p≤0.05, **denotes p≤0.01.

[3] = Topical treatment of arthritis patients with pain; assay type: in vivo, human; details: human, in vivo, topical, 60 mg daily, day 7, 60 mg daily topical
Description: (§1) Fifteen arthritis patients who were experiencing pain were treated with the compound of Formula I@60 mg daily dosing as a topical treatment for seven consecutive days. […] The subjects blood parameters, urine alysis, vital signs, physical examination, ECG were normal.
(§2) The numerical rating scale for pain scoring (NRS) in a compound of Formula I treated group […] reduced from 7.1±1.38 (Day 1; baseline) to 5.8±2.12 (Day 3) and 4.8±2.72 (Day 7). The mean NRS score change from baseline was −1.3±1.54 (Day 3) and −2.3±2.06 (Day 7) points in arthritis participants treated with compound of Formula I. In osteoarthritis participants, the mean change in pain score from Day 1 to Day 7 was of −1.9±1.46 and −1.9±1.57 for pain felt and worst pain felt in 24 hours, respectively. […] The systemic exposure on day 7 ranged from 0.42 ng/mL to 2.44 ng/mL (average 0.79 ng/mL).

arthritis pain = test: Topical treatment of arthritis patients with pain; assay type: in vivo, human; details: for numerical rating scale for pain scoring (NRS): baseline Day 1 7.1±1.38
Description: as §1, §2

[4] = Systemic exposure in human subjects after topical application; details: in vivo
Excerpt: The medicaments according to the present disclosure may contain from about 0.05% to about 10% by weight, or from about 0.5% to about 10% by weight, preferably from about 1.0 to about 4.5% by weight or preferably from about 1.5 to about 4.5% by weight, of the S1P receptor modulator. […] The dose of the S1P receptor modulator used in the treatment of the aforementioned disorders will vary in the usual way with the seriousness of the disorders, the weight of the sufferer, and other similar factors. In preferred embodiments, the medicament is applied to 100 cm^2 of body surface area per 1 g of medicament, up to 1000 cm^2 of body surface area per 1 g of medicament. The medicament can be applied such that the standard daily therapeutic dosage of active compound is ≤3 g. The topical dose level and strength of dose formulation with the compound of formula (I) may be extended to higher levels without risk of bradycardia and lymphopenia. For example, dose levels of medicaments according to the methods of the present disclosure may include up to: • 1. 10 g daily dose of up to 30% ww strength formulation with 1 g up to 300 cm^2 surface area • 2. 10 g daily dose of up to 30% ww strength formulation with 1 g up to 1000 cm2 surface area • 3. 100 g daily dose of up to 3% ww strength formulation with 1 g up to 300 cm^2 surface area • 4. 100 g daily dose of up to 3% ww strength formulation with 1 g up to 1000 cm2 surface area • 5. 300 g daily dose of up to 1% ww strength formulation with 1 g up to 300 cm^2 surface area. • 6. 300 g daily dose of up to 1% ww strength formulation with 1 g up to 1000 cm^2 surface area
The body surface area of an adult is around 16,000 cm^2 to 18,000 cm^2 and the skin surface area varies from 10,000 cm^2 to 20,000 cm^2 (https://hypertextbook.com/facts/2001/IgorFridman.shtml, and references cited within). Human subjects received a topical application of 1 g of 3% by weight formulation per 150 cm^2 of body surface area (over the skin) twice daily for 21 days. The resulting systemic exposure was approximately 2.2 ng/ml.

Incision mediated pain = test: Deep incision wound mediated pain, topical treatment; assay type: in vivo, Sprague Dawley Rats
Excerpt: The total 24 female Sprague Dawley Rats were assigned to two test and two control groups having 6 animals per group. Animals from G1 and G2 received CFA on Day 1 by intraplanter route followed application of test item (0 and 3% respectively), onto injection site from Day 1 to Day 7. Group G3 and G4 animals received deep incision through the skin and fascia of the plantar foot followed by application of test item (0 and 3% respectively), onto the incision site from Day 1 to Day 7. Clinical signs, body weight and pain assessment parameters like Von Frey estimation and FOB was evaluated and the pain reduction results at Day 7 are summarized in Table 7.

What does the source list for `CCCOc1ccc(-c2nc(-c3ccc4oc(C(N)(CO)CO)cc4c3)no2)cc1Cl` [compound of formula (I)]?
systemic exposure ([1]; 0.5 mg single oral dose): 0.6 ng/mL; bradycardia [1]: no bradycardia events; bradycardia ([1]; listed as S1P1 receptor modulator of formula (I)): did not induce bradycardia; bradycardia ([1]; listed as compound of Formula I): no dose proportional or dose relevant bradycardia event; systemic exposure ([1]; 2 mg single oral dose): 2.4 ng/mL; systemic exposure ([1]; 6 mg single oral dose): 7.1 ng/mL; systemic exposure ([1]; 12 mg single oral dose): 18.8 ng/mL; lymphopenia ([1]; dose of ~0.17 mg/kg): no induction of significant lymphopenia; systemic exposure ([1]; dose of ~0.17 mg/kg): 18.8 ng/mL; markers of inflammation (IL-31, IL1β, IFNγ, RT-PCR, spleen) [2]: significantly reduced markers of inflammation; concentration at 7 day ([3]; read-out: systemic exposure, average): 0.79 ng/mL; concentration at 7 day ([3]; read-out: systemic exposure, range): 0.42 to 2.44 ng/mL; absolute lymphocyte count (arthritis pain; 60 mg daily topical, 7 days): no systemic change in the absolute lymphocyte count; safety and tolerability (arthritis pain; 60 mg daily topical, seven days): safe and well tolerated; mean NRS score change from baseline (arthritis pain; Day 3): −1.3±1.54 points; numerical rating scale for pain scoring (NRS) (arthritis pain; Day 3): 5.8±2.12; mean NRS score change from baseline (arthritis pain; Day 7): −2.3±2.06 points; numerical rating scale for pain scoring (NRS) (arthritis pain; Day 7): 4.8±2.72; positive PGART response (arthritis pain; all treated participants (n=12), Day 3, 60 mg daily topical): 41.7 % participants; positive PGART response (arthritis pain; all treated participants (n=12), Day 7, 60 mg daily topical): 58.3 % participants; mean change in pain score, pain felt (arthritis pain; osteoarthritis participants, Day 1 to Day 7, p=0.0153): −1.9±1.46; mean change in pain score, worst pain felt in 24 hours (arthritis pain; osteoarthritis participants, Day 1 to Day 7, p=0.0205): −1.9±1.57; positive PGART response (arthritis pain; participants with osteoarthritis, Day 3): 28.6 % participants; positive PGART response (arthritis pain; participants with osteoarthritis, Day 7): 57.1 % participants; concentration at 3 weeks ([4]; 2 g daily of 3% ww formulation, 2 g daily topical 3% ww formulation for 3 weeks): ~2.5 ng/mL; concentration at 21 days ([4]; topical, 1 g of 3% by weight formulation per 150 cm^2, 1 g of 3% by weight formulation per 150 cm2 twice daily for 21 days): ~2.2 ng/mL; concentration at 1 week ([4]; topical, 2 g of 3% or 6% by weight formulation (60 mg or 120 mg) over the joint area for one week): ≤ 2.5 ng/mL; Pain reduction results at Day 7, Incision mediated pain (Incision mediated pain; 3% (G4), Placebo (G3) 0.33): 0.11; pain relief (Incision mediated pain; 3% topical Day 1 to Day 7, day 7): 67%
